Measured values: patent US3943129A, “7-Amino-3-(1,3,4-thiadiazolinylthio-methyl) cephalosporins” (SmithKline Corporation, priority 1974, dated 1976)
≈ marks a conversion by molar mass, not a printed value.

How the values were obtained:
[1] = test system: Sal. paratyphi ATCC 12176; experiment: Minimum inhibitory concentration (MIC); format: cell-based; conditions: Salmonella enterica
S. aureus HH 127 = experiment: Minimum inhibitory concentration (MIC); conditions: Staphylococcus aureus, HH127
E. coli SK 12140 [2] = experiment: In vivo ED50 in infected mice, subcutaneous; conditions: Escherichia coli, SK12140, in Mus musculus, sc
Strep. pyog. C203 = experiment: Minimum inhibitory concentration (MIC)
[3] = test system: Entero. aerogenes ATCC13048; experiment: Minimum inhibitory concentration (MIC); conditions: Klebsiella aerogenes
Kleb. pneumo. SK 1200 = experiment: Minimum inhibitory concentration (MIC)
Kleb. pneumonia = experiment: In vivo ED50 in infected mice, oral; conditions: Mus musculus
S. aureus SK 23390 = experiment: Minimum inhibitory concentration (MIC); conditions: Staphylococcus aureus, SK23390
E. coli = experiment: In vivo ED50 in infected mice, oral; conditions: Escherichia coli, in Mus musculus
E. coli HH 33779 = experiment: Minimum inhibitory concentration (MIC); conditions: Escherichia coli, HH33779
Kleb. pneumo. SK 4200 [4] = experiment: Minimum inhibitory concentration (MIC)
[5] = test system: Serrantia marcescens ATCC 13880; experiment: Minimum inhibitory concentration (MIC)
Kleb. pneumo. SK 4200 [6] = experiment: In vivo ED50 in infected mice, subcutaneous; conditions: Mus musculus, sc
Strep. faecalis HH 34358 = experiment: Minimum inhibitory concentration (MIC); conditions: Enterococcus faecalis, HH34358
Staph. aurcus villaluz = experiment: Minimum inhibitory concentration (MIC)
Pseudomonas sp. HH 63 = experiment: Minimum inhibitory concentration (MIC); conditions: SP.HH63
E. coli SK 12140 [7] = experiment: Minimum inhibitory concentration (MIC); conditions: Escherichia coli, SK12140
[8] = test system: Entero. cloaca Pa.S.L.969; experiment: Minimum inhibitory concentration (MIC)
Stability to copper ion = format: physicochemical; conditions: vs tested prior art compounds
Stability in solution = format: physicochemical; conditions: neutral or basic pH, vs any prior art compounds that were tested
Shig. paradys. HH 127 = experiment: Minimum inhibitory concentration (MIC)

Structure (SMILES)	MIC [1]	MIC (S. aureus HH 127)	ED50 (E. coli SK 12140 [2])	MIC (Strep. pyog. C203)	MIC [3]	MIC (Kleb. pneumo. SK 1200)	MIC (S. aureus SK 23390)	MIC (E. coli HH 33779)	MIC (Kleb. pneumo. SK 4200 [4])	MIC [5]	ED50 (Kleb. pneumo. SK 4200 [6])	MIC (Strep. faecalis HH 34358)	MIC (Staph. aurcus villaluz)	MIC (Pseudomonas sp. HH 63)	MIC (E. coli SK 12140 [7])	MIC [8]	further results
NC(C(=O)NC1C(=O)N2C(C(=O)O)=C(CSc3n[nH]c(=O)[nH]3)CSC12)c1ccc(O)cc1 (stereo not shown) [Compound IV]	6.3 µg/mL (≈ 13.2 µM)	6.3 µg/mL (≈ 13.2 µM)	4 mg/kg	0.1 µg/mL (≈ 0.209 µM)	12.5 µg/mL (≈ 26.1 µM)	12.5 µg/mL (≈ 26.1 µM)	6.3 µg/mL (≈ 13.2 µM)	25 µg/mL (≈ 52.2 µM)	6.3 µg/mL (≈ 13.2 µM)	> 200 µg/mL	2.8 mg/kg	100 µg/mL (≈ 209 µM)	25 µg/mL (≈ 52.2 µM)	> 200 µg/mL	6.3 µg/mL (≈ 13.2 µM)		ED50 (Kleb. pneumonia): 6.2 mg/kg; ED50 (E. coli): 9.5 mg/kg
O=C(O)C1=C(CSc2n[nH]c(=O)[nH]2)CSC2C(NC(=O)C(O)c3ccccc3)C(=O)N12 (stereo not shown) [V]	1.6 µg/mL (≈ 3.45 µM)	0.8 µg/mL (≈ 1.73 µM)	4 mg/kg	0.1 µg/mL (≈ 0.216 µM)	12.5 µg/mL (≈ 27 µM)	1.6 µg/mL (≈ 3.45 µM)	0.4 µg/mL (≈ 0.863 µM)	6.3 µg/mL (≈ 13.6 µM)	3.1 µg/mL (≈ 6.69 µM)	> 200 µg/mL	8.7 mg/kg	50 µg/mL (≈ 108 µM)	25 µg/mL (≈ 53.9 µM)	> 200 µg/mL	3.1 µg/mL (≈ 6.69 µM)	12.5 µg/mL (≈ 27 µM)	
Cn1c(SCC2=C(C(=O)O)N3C(=O)C(NC(=O)C(N)c4ccccc4)C3SC2)n[nH]c1=O (stereo not shown) [II]	3.1 µg/mL (≈ 6.51 µM)	6.3 µg/mL (≈ 13.2 µM)	12.5 mg/kg	0.1 µg/mL (≈ 0.21 µM)	25 µg/mL (≈ 52.5 µM)	6.3 µg/mL (≈ 13.2 µM)	3.1 µg/mL (≈ 6.51 µM)	25 µg/mL (≈ 52.5 µM)	6.3 µg/mL (≈ 13.2 µM)	> 200 µg/mL	11.5 mg/kg	50 µg/mL (≈ 105 µM)	25 µg/mL (≈ 52.5 µM)	> 200 µg/mL	12.5 µg/mL (≈ 26.2 µM)	50 µg/mL (≈ 105 µM)	
NC(C(=O)NC1C(=O)N2C(C(=O)O)=C(CSc3n[nH]c(=O)[nH]3)CSC12)c1ccccc1 (stereo not shown) [Compound I]	1.6 µg/mL (≈ 3.46 µM)	1.6 µg/mL (≈ 3.46 µM)	2.9 mg/kg	0.1 µg/mL (≈ 0.216 µM)	6.3 µg/mL (≈ 13.6 µM)	3.1 µg/mL (≈ 6.7 µM)	1.6 µg/mL (≈ 3.46 µM)	6.3 µg/mL (≈ 13.6 µM)	3.1 µg/mL (≈ 6.7 µM)	200 µg/mL (≈ 432 µM)	7 mg/kg	50 µg/mL (≈ 108 µM)	12.5 µg/mL (≈ 27 µM)	> 200 µg/mL	3.1 µg/mL (≈ 6.7 µM)	12.5 µg/mL (≈ 27 µM)	stability to copper ion (Stability to copper ion): greater stability to copper ion than tested prior art compounds; stability in solution (Stability in solution): more stable in solution at neutral or basic pH than any prior art compounds that were tested
CCn1c(SCC2=C(C(=O)O)N3C(=O)C(NC(=O)C(N)c4ccccc4)C3SC2)n[nH]c1=O (stereo not shown) [III]	3.1 µg/mL (≈ 6.32 µM)	3.1 µg/mL (≈ 6.32 µM)	29 mg/kg	0.1 µg/mL (≈ 0.204 µM)	25 µg/mL (≈ 51 µM)	6.3 µg/mL (≈ 12.8 µM)	3.1 µg/mL (≈ 6.32 µM)	12.5 µg/mL (≈ 25.5 µM)	6.3 µg/mL (≈ 12.8 µM)	200 µg/mL (≈ 408 µM)	92 mg/kg	25 µg/mL (≈ 51 µM)	25 µg/mL (≈ 51 µM)	> 200 µg/mL	12.5 µg/mL (≈ 25.5 µM)	25 µg/mL (≈ 51 µM)	
CC1=C(C(=O)O)N2C(=O)[C@@H](NC(=O)[C@H](N)c3ccccc3)[C@H]2SC1 [S-II, cephalexin, reference compound]	3.1 µg/mL (≈ 8.92 µM)	3.1 µg/mL (≈ 8.92 µM)	12 mg/kg	0.1 µg/mL (≈ 0.288 µM)	12.5 µg/mL (≈ 36 µM)	3.1 µg/mL (≈ 8.92 µM)	1.6 µg/mL (≈ 4.61 µM)	6.3 µg/mL (≈ 18.1 µM)	6.3 µg/mL (≈ 18.1 µM)	50 µg/mL (≈ 144 µM)	25 mg/kg	50 µg/mL (≈ 144 µM)	50 µg/mL (≈ 144 µM)	> 200 µg/mL	6.3 µg/mL (≈ 18.1 µM)	6.3 µg/mL (≈ 18.1 µM)	
O=C(Cc1cccs1)N[C@@H]1C(=O)N2C(C(=O)[O-])=C(C[n+]3ccccc3)CS[C@H]12 [S-I, cephaloridine, reference compound]	1.6 µg/mL (≈ 3.85 µM)	0.4 µg/mL (≈ 0.963 µM)	6 mg/kg	0.1 µg/mL (≈ 0.241 µM)	> 200 µg/mL	3.1 µg/mL (≈ 7.46 µM)	0.1 µg/mL (≈ 0.241 µM)	6.3 µg/mL (≈ 15.2 µM)	3.1 µg/mL (≈ 7.46 µM)	> 200 µg/mL	7.6 mg/kg	6.3 µg/mL (≈ 15.2 µM)	12.5 µg/mL (≈ 30.1 µM)	> 200 µg/mL	3.1 µg/mL (≈ 7.46 µM)	> 200 µg/mL	MIC (Shig. paradys. HH 127): 1.6 µg/mL (≈ 3.85 µM)
O=C(O)C1=C(CSc2n[nH]c(=S)s2)CSC2C(NC(=O)C(O)c3ccccc3)C(=O)N12 (stereo not shown) [VII]	0.8 µg/mL (≈ 1.61 µM)	0.8 µg/mL (≈ 1.61 µM)	21.5 mg/kg	0.2 µg/mL (≈ 0.403 µM)	12.5 µg/mL (≈ 25.2 µM)	0.8 µg/mL (≈ 1.61 µM)	0.4 µg/mL (≈ 0.805 µM)	3.1 µg/mL (≈ 6.24 µM)	1.6 µg/mL (≈ 3.22 µM)	200 µg/mL (≈ 403 µM)	64 mg/kg	25 µg/mL (≈ 50.3 µM)	12.5 µg/mL (≈ 25.2 µM)	> 200 µg/mL	1.6 µg/mL (≈ 3.22 µM)		
Cn1c(SCC2=C(C(=O)O)N3C(=O)C(NC(=O)C(O)c4ccccc4)C3SC2)n[nH]c1=O (stereo not shown) [VI]	3.1 µg/mL (≈ 6.49 µM)	1.6 µg/mL (≈ 3.35 µM)	9 mg/kg	0.1 µg/mL (≈ 0.209 µM)	12.5 µg/mL (≈ 26.2 µM)	3.1 µg/mL (≈ 6.49 µM)	0.4 µg/mL (≈ 0.838 µM)	12.5 µg/mL (≈ 26.2 µM)		> 200 µg/mL	21 mg/kg	25 µg/mL (≈ 52.4 µM)	12.5 µg/mL (≈ 26.2 µM)	> 200 µg/mL	6.3 µg/mL (≈ 13.2 µM)		
